Entries after “also recorded” stand apart in the source; their conditions may differ. Where two headings read alike, the source gives them in different places.
How the values were obtained:
Crl:CD-1 (ICR)BR mice = test: teratogenicity in pregnant Crl:CD-1 (ICR)BR mice; format: in vivo, mouse; conditions: for teratogenicity in fetuses: daily oral gavage, gestation days 6-18, L6 30 or 200 mg/kg-day, LG100268 30 or 100 mg/kg-day
Method: Teratogenicity is commonly evaluated by examination of fetuses obtained by cesarean section from pregnant mice dosed daily with test compound between gestation days 6-18. We have conducted a blinded study using time-mated female Crl:CD-1® (ICR)BR mice to evaluate potential developmental toxicity (teratogenicity) following administration of L6 at either 30 or 200 mg/kg-day by daily oral gavage for the specified […] of gestation. Each test group consisted of 7-8 pregnant females and produced approx. 100 live fetuses per test group. […] The highest dose of L6 tested (200 mg/kg-day) is twice the dose required to produce maximum antidiabetic activity in db/db mice (100 mg/kg-day).

db/db mouse = db/db mouse study (rodent model of Type II diabetes); conditions: for inhibition in vivo at 30 mg/kg: Mus musculus, po, 168 h, read-out: db/db mouse Glu. (D7); for db/db mouse Trigs. (D3): plasma triglycerides as % of control values, day 3, 30 mg/kg/day
Method: Mice (obtained from Jackson Laboratory), ZDF rats (obtained from Genetic Models Inc.) and fa/fa rats (obtained from either Charles River, or Harlan) were maintained on 12-hour light/dark cycle. […] Compounds were administered at the specified doses by oral gavage on the morning of each day of any experiment. Blood samples were obtained 3 hours after dosing from fed animals under anesthesia and collected into heparinized capillary tubes from the tail vein.

RXRα = target: T1, RXRα (Homo sapiens, UniProt P19793); test: RXRα binding (competition with tritiated LGD1069); conditions: Table 2; from IC50 by Cheng-Prussof equation, tritiated LGD1069; read-out: Bind RXRα Ki
T1 sequence (P19793 1-462): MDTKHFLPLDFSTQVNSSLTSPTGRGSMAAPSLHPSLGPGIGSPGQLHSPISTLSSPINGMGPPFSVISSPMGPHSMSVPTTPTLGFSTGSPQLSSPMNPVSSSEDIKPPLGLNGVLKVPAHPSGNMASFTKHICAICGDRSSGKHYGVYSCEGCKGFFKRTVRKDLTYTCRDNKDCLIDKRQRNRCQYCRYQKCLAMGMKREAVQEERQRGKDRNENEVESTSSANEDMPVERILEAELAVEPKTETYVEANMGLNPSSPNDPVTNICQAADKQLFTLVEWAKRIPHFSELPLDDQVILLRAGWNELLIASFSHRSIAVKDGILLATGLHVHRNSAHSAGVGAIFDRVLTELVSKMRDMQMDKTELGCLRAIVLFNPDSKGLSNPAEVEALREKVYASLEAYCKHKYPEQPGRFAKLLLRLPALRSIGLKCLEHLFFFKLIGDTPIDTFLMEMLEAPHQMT
Method: Non-specific binding was defined as that binding remaining in the presence of 500 nM of the appropriate unlabelled compound. At the end of the incubation period, bound ligand was separated from free. The amount of bound tritiated retinoid was determined by liquid scintillation counting of an aliquot (700 μL) of the supernatant fluid or the hydroxylapatite pellet.
After correcting for non-specific binding, IC50 values were determined. […] The IC50 value was determined graphically from a log-logit plot of the data. The Ki values were determined by application of the Cheng-Prussof equation to the IC50 values, the labeled ligand concentration and the Kd of the labeled ligand.

[1] = target: T2, (Homo sapiens, UniProt P19793); test: RXR homodimer co-transfection assay in CV-1 cells; format: cell-based; conditions: CV-1
T2 sequence (P19793 1-462): T1 sequence (P19793 1-462)
Description: In the co-transfection assay, cloned cDNA for one or more IRs (e.g., human RARα, RXRα, or PPARγ), alone or in combination (i.e. for heterodimer assays) under the control of a constitutive promoter (e.g., the SV 40, RSV or CMV promoter) is introduced by transfection (a procedure to introduce exogenous genes into cells) into a background cell substantially devoid of endogenous IRs. These introduced gene(s) direct the recipient cells to make the IR protein(s) of interest. A further gene is also introduced (co-transfected) into the same cells in conjunction with the IR gene(s). This further gene, comprising the cDNA for a reporter protein, such as firefly luciferase (LUC), controlled by an appropriate hormone responsive promoter containing a hormone response element (HRE). This reporter plasmid functions as a reporter for the transcriptional-modulating activity of the target IR(s). Thus, the reporter acts as a surrogate for the products (mRNA then protein) normally expressed by a gene under control of the target receptor(s) and their native hormone(s).
Exposing the transfected cells to an agonist ligand compound increases reporter activity in the transfected cells. This activity can be conveniently measured, e.g., by increasing luciferase production and enzymatic activity, which reflects compound-dependent, IR-mediated increases in reporter transcription. […] Increasing concentrations of an antagonist will decrease the reporter signal (e.g., luciferase production). The co-transfection assay is therefore useful to detect both agonists and antagonists of specific IRs. Furthermore, it determines not only whether a compound interacts with a particular IR, but whether this interaction mimics (agonizes) or blocks (antagonizes) the effects of native or synthetic regulatory molecules on target gene expression, as well as the specificity and strength of this interaction.
The receptor expression plasmid was cotransfected along with a reporter plasmid at 50 ng/well, the internal control plasmid pRS-β-Gal at 50 ng/well and filler DNA, pGEM, at 90 ng/well.
Six hours after transfection, media was removed and the cells were washed with phosphate-buffered saline (PBS). Media containing compounds of the present invention in concentrations ranging from 10^−10 to 10^−5 M were added to the cells. […] Retinoids were dissolved in dimethylsulfoxide for use in the transcriptional activation assays. Two to three replicates were used for each sample. Transfections and subsequent procedures were performed on a Biomek 1000 automated workstation.
After 40 hours, the cells were washed with PBS, lysed with a detergent-based buffer and assayed for LUC and β-Gal activities using a luminometer or spectrophotometer, respectively. For each replicate, the normalized response (NR) was calculated as: […]
The mean and standard error of the mean (SEM) of the NR were calculated. Data were plotted as the response of the compound compared to the reference compounds over the range of the dose-response curve. […] Antagonist activity was determined by testing the amount of LUC expression in the presence of the RXR agonists described above at the EC50 concentration for such known compounds. […] In addition, the efficacy of antagonists was determined as a function (%) of maximal inhibition.

RXRα:RAR heterodimer = target: T3, RXRα:RAR heterodimer (Homo sapiens, UniProt P19793); test: RXR:RAR heterodimer co-transfection assay in CV-1 cells; format: cell-based; conditions: CV-1; read-out: RXR:RAR CV-1 (%) Ag.
T3 construct: expressed in transfected cells; host or cells: CV-1 cells
T3 sequence (P19793 1-462): T1 sequence (P19793 1-462)
Method: For determination of agonist activity in the context of the RXR:RAR heterodimer or the RXR:PPARγ heterodimer, media containing compounds of the present invention in concentrations ranging from 10^−10 to 10^−5 M were added to the cells.
Compounds of the present invention were also tested for the ability to synergize with a PPARγ agonist in the context of an RXR heterodimer. […] Efficacy of the compounds of the present invention in the agonist and synergy assays was calculated as the maximum response obtained over the range of the dose response curve relative to the maximum response obtained by the reference agonist. Antagonist efficacy was determined as a function (%) of maximal inhibition.
However, when RAR is occupied, typical RXR agonists activate the heterodimer. […] To examine the effects of the compounds of the present invention on the transcriptional properties of the RXR:RAR heterodimer, a heterodimer cotransfection assay as described above was employed.

[2] = system: mice transgenic for the human apolipoprotein A-I gene; test: transgenic mice carrying the human apo A-I gene (HDL cholesterol, triglycerides); format: in vivo, mouse
Description: Mice transgenic for the human apolipoprotein A-I gene (obtained from Jackson Laboratory) were used to evaluate PPARalpha mediated effects on HDL cholesterol. The mice were handled as described above for db/db mice, except that they were fed Purina 5001.

[3] = rodent models of Type II Diabetes

Compound | Corpora lutea, implantation sites, live or dead fetuses, resorptions, fetal weight or sex, external and cranial visceral morphology (Crl:CD-1 (ICR)BR mice; L6 at 30 or 200 mg/kg-day compared to vehicle controls) | teratogenicity in fetuses (Crl:CD-1 (ICR)BR mice) | dose required to produce maximum antidiabetic activity in db/db mice (db/db mouse; db/db mice) [mg/kg-day] | insulin sensitizing activity with thyroid axis suppression and triglyceride elevations (db/db mouse; [3]) | Ki (RXRα) [nM] | Emax ([1]; Table 2, first RXR:RAR head (c4), maximal repression (100%) in presence of 32 nM LGD1069 (RXR:RXR), read-out: RXR:RAR CV-1 (%) Antag.) [%] | Emax ([1]; read-out: RXR:RAR CV-1 (%) Ag.) [%] | Emax (RXRα:RAR heterodimer) [%] | inhibition in vivo at 30 mg/kg (db/db mouse) [%] | db/db mouse Trigs. (D3) (db/db mouse) [%] | triglycerides [2] | db/db mouse Glu. (D 14) (db/db mouse; plasma glucose, % correction relative to lean values, day 14, 100 mg/kg daily oral gavage) [%] | db/db mouse Trigs. (D 14) (db/db mouse; plasma triglycerides, % correction relative to lean values, day 14, NC = no change) [%] | effect on the thyroid hormone axis (db/db mouse; [3]) | effect on triglycerides (db/db mouse; [3]) | insulin sensitizing activity / effect on glucose (db/db mouse; [3]) | db/db mouse T4 (D 3) (db/db mouse; total T4 as % of obese control values, day 3, NC = no change) [%]
CCCCOc1c(\C(C)=C/C=C/C(C)=C/C(=O)O)cc(C(C)C)cc1C(C)C [Compound L6] | no effects were observed | no teratogenic effects were observed | 100 | maintain the desirable insulin sensitizing activity and eliminate or reduce both the suppression of the thyroid axis and triglyceride elevations; also recorded: maintain the desirable insulin sensitizing activity and minimize both the suppression of the thyroid axis and triglyceride elevations |  |  |  |  |  |  |  |  |  |  |  |  | 
CC(/C=C/C1=C(c2cc(C(C)C)cc(C(C)C)c2OCCCF)CCC1)=C\C(=O)O [Compound L14] |  |  |  | maintain the desirable insulin sensitizing activity and minimize both the suppression of the thyroid axis and triglyceride elevations | 5 | 80 | 3 | 2 | 45 | 138 |  |  |  |  |  |  | 
Cc1cc2c(cc1C1(c3ccc(C(=O)O)cn3)CC1)C(C)(C)CCC2(C)C [LG100268, 6-[1-(3,5,5,8,8-pentamethyl-5,6,7,8-tetrahydronaphthalen-2-yl)cyclopropyl]nicotinic acid, reference compound] |  | Teratogenicity was observed |  |  |  |  |  |  | 73 | 195 | substantially raise triglycerides | 73 | 82 | suppress the thyroid hormone axis | raise triglycerides | efficacious insulin sensitizers | 43
